Experimental data published in PubChem BioAssay (NCI).
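Five compound concentrations were applied to cells in 96-well plates for 48 hours; endpoints were derived by simple linear interpolation of the resulting dose-response curve. TGI denotes the concentration required for complete inhibition of growth.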

How the values were obtained:
Test in all cases: growth of human tumour cells (NCI), 48 h
ACHN renal = tested on: ACHN renal
MDA-N = tested on: MDA-N
K-562 leukemia = tested on: K-562 leukemia
UACC-62 melanoma = tested on: UACC-62 melanoma
HCT-116 colon = tested on: HCT-116 colon
U251 CNS = tested on: U251 CNS
SF-268 CNS = tested on: SF-268 CNS
NCI-H460 lung = tested on: NCI-H460 lung
OVCAR-4 ovarian = tested on: OVCAR-4 ovarian
SR leukemia = tested on: SR leukemia
NCI-H226 lung = tested on: NCI-H226 lung

Structure (SMILES)	TGI (ACHN renal) [µM]	TGI (MDA-N) [µM]	TGI (K-562 leukemia) [µM]	TGI (UACC-62 melanoma) [µM]	TGI (HCT-116 colon) [µM]	TGI (U251 CNS) [µM]	TGI (SF-268 CNS) [µM]	TGI (NCI-H460 lung) [µM]	TGI (OVCAR-4 ovarian) [µM]	TGI (SR leukemia) [µM]	TGI (NCI-H226 lung) [µM]
CC(=O)O[C@H]1C[C@](C)(O)[C@@]23CC([C@@H](OC(=O)C(C)(C)O)[C@@H](OC(C)=O)C2(COC(=O)c2ccccc2)[C@H]1OC(C)=O)C(C)(C)O3 (stereo partly specified)	> 100	> 100	> 100	> 100	> 100	> 100	> 100	> 100	> 100		
CC(=O)OCC1OC(n2c(N)c(C#N)c(-c3cccc(Cl)c3)c(C#N)c2=S)C(OC(C)=O)C(OC(C)=O)C1OC(C)=O (stereo unspecified)	> 100	54.7	> 100	> 100	94	78.9	39.4	> 100	> 100	42.8	
O=C1C=C(O)c2c(O)ccc(O)c2C1=O	> 100	> 100	> 100	> 100	> 100	> 100	> 100	> 100	> 100		> 100
N#CCc1nc2cc(C(F)(F)F)ccc2s1	> 100	> 100			95.2	> 100	> 100		> 100		> 100
O=C(c1ccccc1)c1c(C(F)(F)F)n([O-])c2cc(F)c(F)cc2[n+]1=O	0.232			5.08			2.45	8.53	> 100		5.69
CN(C)C=NCC(O)c1ccccc1 (stereo unspecified)	> 100	> 100	> 100	> 100	> 100		> 100	> 100	> 100	> 100	> 100
C=CCOCn1ccc(N)nc1=O		> 100	> 100	> 100	> 100		> 100			> 100	> 100
C[N+]1([O-])[C@H]2CC(OC(=O)[C@H](CO)c3ccccc3)C[C@H]1[C@H]1O[C@H]12 (stereo partly specified)	> 100	> 100	> 100	> 100	> 100	> 100			> 100	> 100	> 100
O=c1c2cc(I)ccc2nc(SCc2nnco2)n1Cc1ccccc1	> 100	> 100		> 100	> 100	> 100	> 100	> 100	> 100	> 100	> 100
COc1cc2[nH]c(=O)c3cc(C)cc4c(Cl)nc(c1OC)c2c43	> 100	> 100	> 100	96	> 100	> 100	84.8	> 100	> 100		> 100
COc1ccc(-c2nc(-c3cnccn3)n(Cc3ccccc3)n2)cc1		> 100	> 100	> 100	> 100	> 100	> 100	> 100	> 100	> 100	
O=C1CC(C(COCc2ccccc2)OCc2ccccc2)CC(=O)N1 (stereo unspecified)	> 100	> 100	> 100		> 100	> 100	> 100			> 100	> 100
CCn1c(=O)c2c3ccc(OC)cc3[nH]c2c2ccc(OC)cc21	> 100	> 100	> 100	> 100	> 100	> 100	> 100		> 100	> 100	> 100
C[C@]12CC[C@H](O)CC1=CC[C@@H]1[C@@H]2CC[C@]2(C)C(=O)/C(=C/c3ccc([N+](=O)[O-])cc3)C[C@@H]12	33.4	> 100	> 100	> 100	62.3		21.5	> 100	32.3	> 100	10.2
CC(=O)OCC1OC(SC2=NC(=O)/C(=C/c3ccccc3)S2)C(OC(C)=O)C(OC(C)=O)C1OC(C)=O (stereo unspecified)	> 100	> 100		87.2	> 100	91	52.3	> 100	> 100	51.5	95
COc1cc([C@@H]2c3cc4c(cc3[C@@H](c3c(O)cc(O)c5c3O[C@H](c3ccc(O)c(O)c3)[C@H](OC(=O)c3cc(O)c(O)c(O)c3)C5)[C@H]3COC(=O)[C@H]23)OCO4)cc(OC)c1O	> 100	> 100		> 100	> 100	> 100	> 100	> 100	> 100		
CC(=O)c1ccc2c3c1O[C@H]1c4[nH]c5ccccc5c4C[C@@]4(O)[C@@H](C2)N(CC2CC2)CC[C@]314	30.9	34.6	41.3	30.7	28.9	26.1	28.8	17.7	39.9		42.5
CC(=O)N1C(Nc2cccc3nc(C)ccc23)CCN1c1ccccc1 (stereo unspecified)	> 10	> 10	> 10		> 10		> 10	> 10	> 10	> 10	> 10
OCC1OC(c2ccccc2)CC1O (stereo unspecified)	> 100		> 100	> 100	> 100	> 100		> 100	> 100	> 100	> 100
O=S(c1ccc(Cl)cc1)c1ccccc1C1=NCCN1 (stereo unspecified)	> 100	> 100	> 100	> 100	> 100	> 100	> 100	> 100	> 100		> 100
